Experimental data published in patent US10786525B2, “Method for treating haemorrhage, shock and brain injury” (priority 2013, dated 2020).

What was measured:
[1] = oral and/or intravenous 10, 25, 50, and 100 mg/kg; cited from earlier work
[2] = tested on: isolated guinea-pig mesenteric artery; assay: Pressure myograph relaxation of AVP-constricted mesenteric artery (Example 4); conditions: for relaxation of intact artery: 0.001 to 1 mM, luminal or abluminal; for abluminal versus luminal relaxation: adenosine: at 10 μM and 100 μM
Description: Male guinea pigs (250-300 g) were anesthetised and placed in a cradle and the abdomen opened. Second order mesenteric artery branches were isolated and mounted in a pressure myograph (see FIG. 4) under constant pressure of 60 mmHg and perfusion (luminal flow) of 100 uL/min with Krebs-Henseleit buffer (37° C.). Artery diameter was continuously measured using videomicroscopy (see FIG. 4). For the relaxation/vasodilation experiments arteries were equilibrated and then constricted with 10^−8 M arginine vasopressin (AVP). Adenosine, lidocaine or adenosine-lidocaine together were administered 2) luminally and 2) abluminally and concentration curves were obtained. Stock solutions of adenosine and lidocaine alone or adenosine-lidocaine combined were made in deionized water to 20 mM. A range of volumes were pipetted to provide contact concentrations with the vessel lumen or outer wall that ranged from 0.001 to 1 mM. At the end of experiments, arteries were dilated using calcium-free solution to obtain 100% relaxation. A number of arteries were denuded by introducing 5 ml air into the lumen with flow rate 1000 μl/min. The air outflow was then clamped until the intraluminal pressure reached 70 mmHg, flow rate was reduced to 2 μl/min and the vessel remained pressurized for 10 minutes

Row | SMILES | safety in humans [1] | relaxation with or without intact endothelium [2] | relaxation of intact artery [2] | abluminal versus luminal relaxation [2] | artery diameter in the presence of endothelium [2] | relaxation when endothelium was absent ([2]; denuded)
1 | NC(=O)c1ncn([C@@H]2O[C@H](CO)[C@@H](O)[C@H]2O)c1N [Acadesine, 5-amino-4-imidazole carboxamide ribonucleoside] | safe in humans |  |  |  |  | 
2 | Nc1ncnc2c1ncn2[C@@H]1O[C@H](CO)[C@@H](O)[C@H]1O [adenosine] |  | relaxed the mesenteric artery in a dose dependent manner | increased relaxation | significantly more relaxation |  | 
3 | CCN(CC)CC(=O)Nc1c(C)cccc1C [lidocaine] |  |  | failed to produce relaxation | no significant difference | did not significantly change mesenteric artery diameter | relaxed the artery
